# Reference: PMC2822779, “A glycine receptor is involved in the organization of swimming movements in an invertebrate chordate” (BMC Neuroscience, 2010)
# Target: T1, Ci-GlyR (Ciona intestinalis, UniProt D2KU21)
# T1 construct: single subunit expressed alone; no tag stated; cDNA from hatched larvae
# T1 sequence (D2KU21 25-491): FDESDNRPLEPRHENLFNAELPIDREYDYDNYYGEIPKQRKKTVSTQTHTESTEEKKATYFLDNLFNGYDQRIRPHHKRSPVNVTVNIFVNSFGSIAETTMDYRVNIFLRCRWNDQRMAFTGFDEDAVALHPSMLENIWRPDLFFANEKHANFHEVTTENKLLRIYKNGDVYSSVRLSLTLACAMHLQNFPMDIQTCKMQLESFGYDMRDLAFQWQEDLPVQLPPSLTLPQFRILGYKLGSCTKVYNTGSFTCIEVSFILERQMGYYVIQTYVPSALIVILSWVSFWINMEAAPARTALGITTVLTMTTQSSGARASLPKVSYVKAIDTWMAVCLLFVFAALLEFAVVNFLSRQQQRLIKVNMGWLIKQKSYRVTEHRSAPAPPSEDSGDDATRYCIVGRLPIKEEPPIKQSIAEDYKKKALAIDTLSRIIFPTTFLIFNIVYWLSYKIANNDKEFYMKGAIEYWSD
# Assay: two-electrode voltage clamp, Xenopus oocytes
# Type: cell-based
smiles,measurement,value
NCC(=O)O [glycine],EC50,~750 µM
